PubChem BioAssay AID1963423 (Molecular Pharmacology Branch, DTP, NCI, 2024)

Test system: 439559-082-T-J2-PDC complex spheroid growth
Assay: Anticancer human tumor 439559-082-T-J2-PDC patient-derived colon adenocarcinoma cell line growth inhibition [Asc]
Conditions: for IC50: curve of first compound; for viability, T/C: stronger effect = lower value
Summary of the method: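 Complex solid-tumor spheroids incorporating human endothelial and mesenchymal stem cells received single agents or combinations over half-log dilution ranges anchored to clinical Cmax.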

[1] = second compound 0.00316 µM, first compound 0.0316 µM
[2] = second compound 0.00316 µM, first compound 0.1 µM
[3] = second compound 0.00316 µM, first compound 0.316 µM
[4] = second compound 0.00316 µM, first compound 1 µM
[5] = second compound 0.01 µM, first compound 0.0316 µM
[6] = second compound 0.01 µM, first compound 0.1 µM
[7] = second compound 0.01 µM, first compound 0.316 µM
[8] = second compound 0.01 µM, first compound 1 µM
[9] = second compound 0.0316 µM, first compound 0.0316 µM
[10] = second compound 0.0316 µM, first compound 0.1 µM
[11] = second compound 0.0316 µM, first compound 0.316 µM
[12] = second compound 0.0316 µM, first compound 1 µM
[13] = second compound 0.1 µM, first compound 0.0316 µM
[14] = second compound 0.1 µM, first compound 0.1 µM
[15] = second compound 0.1 µM, first compound 0.316 µM
[16] = second compound 0.1 µM, first compound 1 µM
[17] = second compound 0.316 µM, first compound 0.0316 µM
[18] = second compound 0.316 µM, first compound 0.1 µM
[19] = second compound 0.316 µM, first compound 0.316 µM
[20] = second compound 0.316 µM, first compound 1 µM
[21] = second compound 1 µM, first compound 0.0316 µM
[22] = second compound 1 µM, first compound 0.1 µM
[23] = second compound 1 µM, first compound 0.316 µM
[24] = second compound 1 µM, first compound 1 µM
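Also: spheroids exposed to agents for 7 days starting day 3 after seeding.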
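For viability, T/C in this document: percent of DMSO vehicle control viability with 100% = vehicle.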

## C=CC(=O)N1CCN(c2nc(=O)n(-c3c(C)ccnc3C(C)C)c3nc(-c4c(O)cccc4F)c(F)cc23)C(C)C1 (centres undefined) + CNC(C)C(=O)NC1CN(S(=O)(=O)c2cccc(S(=O)(=O)N3CCC4CCC(C(=O)NC(c5ccccc5)c5ccccc5)N4C(=O)C(NC(=O)C(C)NC)C3)c2)CCC2CCC(C(=O)NC(c3ccccc3)c3ccccc3)N2C1=O
Second compound 0.00316 µM
  IC50: > 10000 nM
Second compound 0.01 µM
  IC50: > 10000 nM
Second compound 0.0316 µM
  IC50: > 10000 nM
Second compound 0.1 µM
  IC50: > 10000 nM
Second compound 0.316 µM
  IC50: > 10000 nM
Second compound 1 µM
  IC50: > 10000 nM
[1]
  viability, T/C: 103%
[2]
  viability, T/C: 94.8%
[3]
  viability, T/C: 97.2%
[4]
  viability, T/C: 101%
Second compound 0.00316 µM, first compound 3.16 µM
  viability, T/C: 105%
Second compound 0.00316 µM, first compound 10 µM
  viability, T/C: 102%
[5]
  viability, T/C: 110%
[6]
  viability, T/C: 94.9%
[7]
  viability, T/C: 95.5%
[8]
  viability, T/C: 107%
Second compound 0.01 µM, first compound 3.16 µM
  viability, T/C: 111%
Second compound 0.01 µM, first compound 10 µM
  viability, T/C: 103%
[9]
  viability, T/C: 93.6%
[10]
  viability, T/C: 95.3%
[11]
  viability, T/C: 89.9%
[12]
  viability, T/C: 99%
Second compound 0.0316 µM, first compound 3.16 µM
  viability, T/C: 95%
Second compound 0.0316 µM, first compound 10 µM
  viability, T/C: 99.6%
[13]
  viability, T/C: 111%
[14]
  viability, T/C: 105%
[15]
  viability, T/C: 100%
[16]
  viability, T/C: 93.8%
Second compound 0.1 µM, first compound 3.16 µM
  viability, T/C: 104%
Second compound 0.1 µM, first compound 10 µM
  viability, T/C: 91.3%
[17]
  viability, T/C: 105%
[18]
  viability, T/C: 109%
[19]
  viability, T/C: 99.9%
[20]
  viability, T/C: 105%
Second compound 0.316 µM, first compound 3.16 µM
  viability, T/C: 94%
Second compound 0.316 µM, first compound 10 µM
  viability, T/C: 103%
[21]
  viability, T/C: 81.9%
[22]
  viability, T/C: 78%
[23]
  viability, T/C: 85.4%
[24]
  viability, T/C: 76.3%
Second compound 1 µM, first compound 3.16 µM
  viability, T/C: 101%
Second compound 1 µM, first compound 10 µM
  viability, T/C: 93.6%

## COc1c(OCCCN2CCOCC2)ccc2c3n(c(=NC(=O)c4cnc(N)nc4)nc12)CCN3 + CNC(C)C(=O)NC1CN(S(=O)(=O)c2cccc(S(=O)(=O)N3CCC4CCC(C(=O)NC(c5ccccc5)c5ccccc5)N4C(=O)C(NC(=O)C(C)NC)C3)c2)CCC2CCC(C(=O)NC(c3ccccc3)c3ccccc3)N2C1=O
Second compound 0.00316 µM
  IC50: > 1000 nM
Second compound 0.01 µM
  IC50: > 1000 nM
Second compound 0.0316 µM
  IC50: > 1000 nM
Second compound 0.1 µM
  IC50: > 1000 nM
Second compound 0.316 µM
  IC50: > 1000 nM
Second compound 1 µM
  IC50: 380 nM
Second compound 0.00316 µM, first compound 0.00316 µM
  viability, T/C: 100%
Second compound 0.00316 µM, first compound 0.01 µM
  viability, T/C: 95.2%
[1]
  viability, T/C: 98.9%
[2]
  viability, T/C: 80.8%
[3]
  viability, T/C: 72.6%
[4]
  viability, T/C: 64.7%
Second compound 0.01 µM, first compound 0.00316 µM
  viability, T/C: 102%
Second compound 0.01 µM, first compound 0.01 µM
  viability, T/C: 88.6%
[5]
  viability, T/C: 99.1%
[6]
  viability, T/C: 84.5%
[7]
  viability, T/C: 73.8%
[8]
  viability, T/C: 63.4%
Second compound 0.0316 µM, first compound 0.00316 µM
  viability, T/C: 93.2%
Second compound 0.0316 µM, first compound 0.01 µM
  viability, T/C: 98.8%
[9]
  viability, T/C: 92.5%
[10]
  viability, T/C: 77.4%
[11]
  viability, T/C: 81.5%
[12]
  viability, T/C: 71.2%
Second compound 0.1 µM, first compound 0.00316 µM
  viability, T/C: 96.2%
Second compound 0.1 µM, first compound 0.01 µM
  viability, T/C: 109%
[13]
  viability, T/C: 82.2%
[14]
  viability, T/C: 78.9%
[15]
  viability, T/C: 70.5%
[16]
  viability, T/C: 62.6%
Second compound 0.316 µM, first compound 0.00316 µM
  viability, T/C: 94.9%
Second compound 0.316 µM, first compound 0.01 µM
  viability, T/C: 89%
[17]
  viability, T/C: 85.1%
[18]
  viability, T/C: 66.3%
[19]
  viability, T/C: 61.3%
[20]
  viability, T/C: 58.6%
Second compound 1 µM, first compound 0.00316 µM
  viability, T/C: 80.8%
Second compound 1 µM, first compound 0.01 µM
  viability, T/C: 74.5%
[21]
  viability, T/C: 65.6%
[22]
  viability, T/C: 53.1%
[23]
  viability, T/C: 53.8%
[24]
  viability, T/C: 44.8%
